What was measured:
[1] = test system: GLUC2 GSC intracranial gliomas; assay: Murine glioma model, luciferase imaging and tumor volume; assay type: in vivo, mouse
Protocol: Gliomas were established in 3-4 month old male and female mice as described previously (3, 4, 33). GLUC2 GSC were dissociated with accutase and counted. Mice were anesthetized with 20 mg/kg avertin, a midline incision was made in the scalp, the skin retracted and a small burr hole was drilled in the skull at the following stereotactic coordinates from bregma: −lmm anteroposterior and +2 mediolateral. l×10^5 GLUC2 GSC resuspended in PBS were injected over a period of 2 minutes at a depth of 3 mm. At the end of the injection, the needle was kept in the injection site for a further 3 minutes. After needle removal, the incision was sutured and mice were placed on a heating pad until they fully recovered from anesthesia. […] All animal procedures were approved by the Stony Brook University Institutional Animal Care and Use Committee.
GSC engraftment was visualized using the IVIS spectrum in vivo imaging system 7 days after inoculation and again on days 14 and 21. Briefly, mice were anesthetized using continuous isofluorane exposure. Their scalps were shaved. Mice were injected i.p. with 150 mg/kg D-Luciferin, carefully placed in the IVIS spectrum machine and imaged every 3-4 minutes for 40 minutes. Relative signal was quantified by technician blinded to experiment, and luminescence ratios of day 21 to day 7 were calculated to approximate disease progression throughout the course of treatment.
Lucanthone was solubilized in 10% DMSO, 40% HPCD in PBS. After confirming the presence of gliomas on day 7, mice were randomly divided to control and treatment groups, and treated with either saline or 50 mg/kg lucanthone i.p. every day from day 7 to day 20. On day 21, tumors were visualized by bioluminescent imaging, as above.
Mice were anesthetized with 20 mg/kg avertin and transcardially perfused with 30 ml PBS followed by 30 ml 4% PFA in PBS. Brains were removed and post-fixed in 4% PFA in PBS overnight. They were dehydrated for 48 hours in 30% w/v sucrose in PBS. Brains were then embedded in optimal cutting temperature compound (OCT, Tissue-Tek) and 20 μm coronal sections throughout the entire tumor were taken on a Leica cryostat (Nusslock, Germany) and collected on Superfrost plus microscope slides. To determine tumor volume, serial sections were taken from each animal and subjected to hematoxylin and eosin stain. Tumor volume was calculated as tumor area×20 μm thickness, x number of slides (34).

[2] = test system: lysosomes (acidic vesicles) in GLUC2 and KR158 cells; assay: Acridine orange stain; assay type: cell-based, mouse; details: 48 hours
Protocol: GLUC2, KRl 58 and GBM43 cells were plated on glass-bottom 35 mm plates overnight. They were then treated with medium or lucanthone for 48 hours. The cells were treated with 5 μg/ml acridine orange for 15 minutes. Plates were washed with PBS 3× and then incubated in complete medium. Plates were then imaged for acidic vesicle accumulation ([…]) under confocal microscopy, according to manufacturer's instructions (Cayman chemical).

`CCN(CC)CCNc1ccc(C)c2sc3ccccc3c(=O)c12` [lucanthone] was tested, and the systemic toxicity ([1]; 50 mg/kg) was “lack of apparent systemic toxicity”, the “weight loss throughout the course of treatment” value ([1]; 50 mg/kg i.p. every day) was “did not experience significant weight loss” and the “mice with a two-fold increase in luminescence” value ([1]; day 14, 50 mg/kg i.p. every day from day 7) was 1 of 8. For the same molecule, the “increase in tumor luminescence compared to day 7” value ([1]; day 21, 50 mg/kg i.p. every day) was 10 fold, the “tumors smaller than those of saline-treated animals” value ([1]; histological analysis, 50 mg/kg i.p. every day) was “approximately 60%” and the “acridine orange staining of lysosomes” value [2] was “remarkable diffuse cytoplasmic staining of dilated lysosomes”.
